Assay results as given in patent US6664246B2, “Pharmaceutical composition” (MRC Holdings PTY Limited, priority 1999, dated 2003).

Key:
[1] = Dissolution of 1,25(OH)2D3 in iodised poppy seed oil; format: physicochemical; conditions: in one ml of iodised poppy seed oil
Protocol: For example, 2 mg of 1,25(OH)2 D3 can be readily dissolved in one ml of iodised poppy seed oil.

[2] = test system: HepG2 cells; assay: [3H]thymidine incorporation cell proliferation assay; format: cell-based, human
Protocol: (§1) Following exposure of cells to vitamin D3 dissolved in normal or lipiodol (1% v/v) containing media. [^3H]thymidine incorporation assay and the trypan blue exclusion cell count methods were used to determine cell proliferation. To do this, cells were plated in 24 well tissue culture plates at 10^4 cells per well and incubated for 24 h in an incubator at 37° C. with humidified 5% CO2 atmosphere. The, medium was replaced with one containing vitamin D3(10^−11 to 10^−7 M) dissolved in either the normal medium or first dissolved in lipiodol and then mixed thoroughly with the medium to make a final lipiodol concentration of 1% (v/v). For acute dose studies, cells were exposed to one of the two drug containing media for 24 h, which were then replaced with drug free medium for the next four days. Whilst, in chronic treatment, cells were exposed for 5 days to different concentrations of the drug dissolved in one of the media described above. The media were changed on alternate days. At the end of treatment period, cell cultures were assayed for thymidine incorporation by the addition of 0.1μ Ci of [^3H]thymidine to each well for the last 4 h of culture. The amount of radioactivity incorporated into trichloroacetic acid precipitatable material was determined using a β-scintillation counter. Results are plotted as percentage inhibition relative to control. […]

[3] = test system: HepG2 cells; assay: Trypan blue exclusion cell count assay; format: cell-based, human
Protocol: as §1, with “At the end of treatment period, cell cultures were assayed for thymidine incorporation by the addition of 0.1μ Ci of [^3H]thymidine to each well for the last 4 h of culture.” left out, “counter.” for “counter. Results are plotted as percentage inhibition relative to control.”
For the cell count assay, cells were plated in six well plates at a concentration of 5×10^4 cells per well. […] At the end of the treatment period (5 days), cells were trypsinised and counted with a hemocytometer. […]

[4] = test system: HTC; assay: Screening of rat cell lines for responsiveness to vitamin D3; format: cell-based; conditions: 10^-6 M, read-out: inhibition of proliferation
From the text: (§2) 2. In order to find an appropriate cell line, which would grow in the rat tumor and also be responsive to vitamin D3, rat cell lines, Novikoff and HTC were screened for responsiveness to vitamin D3(10^−11-10^−6 M).

[5] = test system: Novikoff; assay: as above; format: cell-based; conditions: 10^-11-10^-6 M
From the text: as §2

[6] = Radiolabelled vitamin D3 levels in liver, tumor and plasma after hepatic artery injection in Novikoff tumor bearing rats; format: in vivo, Sprague-Dawley rats; conditions: 1 hour post injection
Protocol: Male 300-350 gr. Sprague-Dawely rats were given a general anaesthetic (halothane) and a lapratomy performed. Then 5×10^6 Novikoff cells suspended in 100 μl of medium was instilled beneath the liver capsule using a 26G3/8-tuberculin needle. The abdominal incision was then closed with gut suture.
Animals were then left for 10 days with food and water available ad libitum and monitored daily to assess health and well being. After this period, animals were randomly allocated to one of the treatment groups (n=6 per group) and lapratomy was performed again. A catheter was inserted into the hepatic artery of the animal, through which radiolabelled vitamin D3 or vehicle injections were carried out. The different experimental groups treated were as follows:
After administration of the drug, the catheter was removed and the incision sutured. Animals were euthanased at 1 hour, 1, and 3 days post drug (or vehicle) administration. Just before euthanasing, 3 ml of blood was drawn through cardiac puncture from each animal.
Post mortem, the liver and the tumor of each animal was excised, weighed and frozen in the freezer until analysis. After tissue homogenization, liver, tumor or plasma was extracted with dichloromethane. The amount of hot vitamin D3 present in each sample was determined using a β-counter.

**Q.** For C=C1/C(=C\C=C2/CCC[C@]3(C)[C@@H]([C@H](C)CCCC(C)(C)O)CC[C@@H]23)C[C@@H](O)C[C@@H]1O [1,25(OH)2 D3, 1,25-dihydroxycholecalciferol], which amount readily dissolved [1] is on record?
**A.** 2 mg

**Q.** What does the source list for C=C1CC[C@H](O)C/C1=C/C=C1\CCC[C@]2(C)[C@@H]([C@H](C)CCCC(C)C)CC[C@@H]12 [vitamin D3, cholecalciferol]?
**A.** thymidine incorporation compared to control, acute treatment ([2]; 1 day exposure to drug, then 4 days medium without drug): did not show a reduction in thymidine incorporation; thymidine incorporation versus control, chronic treatment ([2]; 5 days exposure, all concentrations (10^-11 to 10^-7 M)): significant reduction in thymidine incorporation; cell number, acute treatment ([3]; 10^-7 M, 1 day exposure, then 4 days drug free): significant reduction in cell number; cell number, chronic treatment ([3]; 5 days exposure): dose dependant decrease in call number; inhibition at 1 µM [4]: ~50%; responsiveness of cell line to vitamin D3 [5]: non responsive; level of radioactivity in liver, tumor and plasma [6]: high in all three samples
